# Key:
# RIP3 [1] = molecular target: T1, RIP3 (Homo sapiens, UniProt Q9Y572); assay: S227 auto-phosphorylation of overexpressed RIP3 in 293T cells (immunoblot); format: cell-based; settings: 293T cells transfected with Flag-hRIP3
# Description: TNFα Smac mimetic and the caspase inhibitor zVAD (hereafter referred to as TSZ) is a classical combination that is used to induce RIP3-mediated necroptotic cell death[10],[32]. We first verified that three established pharmacological inhibitors of necroptosis, necrostatin-1 (Nec-1), necrosulfonamide (NSA), and dabrafenib (DAB) could block TNF-induced necroptosis (Fig. 2d). Of these inhibitors, Nec-1 inhibits RIP1 kinase activity[33],[34], DAB inhibits RIP3 kinase activity, and NSA inhibits MLKL functions downstream of RIP3 phosphorylation. […] Next, we tested whether these four inhibitors would inhibit TNF-induced necroptosis signaling by blocking RIP3 kinase activity. […] The effect of HS-1371 on RIP3 kinase activity was compared with another RIP3 inhibitor, GSK’872[16]. […]
# (a) Overexpression of RIP3 could induce S227 phosphorylation without stimuli. […] After cells were harvested, cell lysates were analyzed by […]
# kinase inhibitor. HT-29 cells were treated with HS -1371 or GSK’872 indicated concentrations for 9 h, and cell lysates were analyzed by immunoblotting.
# (c) Cytotoxicity of HS-1371 was compared with GSK’872. HT-29 cells were treated with 2 kinase inhibitors for 24 h and cell viability was analyzed by MTT assay.
# (d) Inhibition of MLKL phosphorylation by HS-1371 was compared with other two RIP3 kinases inhibitors, DAB (5 μM) and GSK’872 (5 μM). […] Cell lysates were analyzed by […]
# p-MLKL = assay: Phospho-MLKL immunofluorescence in HT-29 cells; format: cell-based, human; settings: HT-29, immunofluorescence
# Method: HT-29 cells were fixed in 4% paraformaldehyde for 10 min. To stain phospho-MLKL, cells were permeabilized with 0.25% Triton X-100 for 10 min. After incubation in a blocking buffer (10% fetal bovine serum in DPBS) for 30 min, the primary antibody to phospho-MLKL was incubated overnight at 4 °C, and FITC-conjugated secondary antibody (goat anti-rabbit IgG, 1:250, dilution, Invitrogen) was incubated for 1 h at room temperature. A mounting medium containing DAPI (VECTASHIELD, Cat No. 94010, Vector Laboratories) was used for counterstaining. Representative images were taken by confocal microscope.
# HT-29 cells were pretreated with four tested inhibitors for 2 h and then treated with TSZ (6 h for immunoblotting, 24 h for cell death assay). Cell lysates were analyzed by immunoblotting, and cell viability was analyzed by MTT assay or phase-contrast microscopy. The results are presented as the means ± SEM. *P < 0.05, **P < 0.01, ***P < 0.001. b Protection of necroptosis by HS-1371 treatment is similar with dabrafenib, which abolished downstream events. HT-29 cells were pretreated with various necroptosis inhibitors and HS-1371 before TSZ treatment. Cell lysates were analyzed by immunoblotting, and cell viability was analyzed by MTT assay (left panel). Cells were stained with phospho-MLKL antibody and analyzed by confocal fluorescence microscopy (middle panel), and cell death was further analyzed by FACS analysis after PI staining (right panel). c HS-1371 protects cells from TNF-induced necroptosis in a dose-dependent manner. HT-29 cells were pretreated with indicated concentrations of HS-1371 and then treated with TSZ (6 h for immunoblotting, 24 h for cell death assay). Cell lysates were analyzed by immunoblotting, and cell viability was analyzed by MTT assay or phase-contrast microscopy. The results are presented as means ± SEM. *P < 0.05, **P < 0.01, ***P < 0.001 TEXT PRINTED IN THE PICTURE: (b) TSZ: 20.7 | (b) TSZ + Nec-1: 5.8 | (b) TSZ + DAB: 5.5 | (b) TSZ + 1371: 6.8 DOUBTS OF THE COPYIST ABOUT THIS PICTURE: Panel b, flow cytometry plots: the red gate numbers are printed without a measure or unit, so none is given / Panel b: the 'Untreated' control plot prints 7.7; left out because it is not a substance
# RIP3 [2] = molecular target: T1, RIP3; assay: TNF (TSZ)-induced RIP3 and MLKL phosphorylation in HT-29 cells (immunoblot); format: cell-based; parameters: RIP3-expressing HT-29 cells; endogenous in cells; host or cells: HT-29; settings: HT-29; Nec-1 40 μM, DAB 10 μM, NSA 1 μM pretreated 2 h, TSZ 6 h
# Method: (§1) Cells were rinsed in cold phosphate-buffered saline (PBS) and lysed in M2 buffer containing 20 mM Tris at pH 7, 0.5% NP-40, 250 mM NaCl, 3 mM EDTA, 3 mM EGTA, 2 mM DTT, 0.5 mM PMSF, 20 mM β-glycerol phosphate, 1 mM sodium vanadate, and 1 μg/mL leupeptin. The cell extracts were subjected to western blot analysis. For immunoprecipitation, lysates were mixed and precipitated with antibody and protein A-agarose beads overnight or for 4 h at 4 °C. Bound proteins were removed by boiling in SDS and resolved by SDS-PAGE, and immunoblotting was visualized by enhanced chemiluminescence (ECL, Amersham).
# (§2) Fig. 2 Novel inhibitors can block RIP3 S227 phosphorylation. a Western blotting showing various kinase inhibitor effects on RIP3 S227 auto-phosphorylation. HT-29 cells were treated with four tested kinase inhibitors (1308, 1336, 1338, and 1371, 10 μM) for 9 h. As a control, KK5101 (Trk alpha inhibitor) and HS829 (IKK beta inhibitor) were also treated at a concentration of 10 μM for 9 h. Prototypical necroptosis stimuli (TNF + zVAD + either cycloheximide or SMAC mimetic; hereafter referred to as TCZ or TSZ) were applied for 6 h. […] HT-29 cells were treated with 4 tested kinase inhibitors for 24 h, and cell viability was analyzed by MTT assay or phase-contrast microscopy. […] HT-29 cells were pretreated with necrostatin-1 (Nec-1, 40 μM), dabrafenib (DAB, 10 μM) or necrosulfonamide (NSA, 1 μM) for 2 h and then treated with TSZ for 6 h. […] HT-29 cells were pretreated with four tested kinase inhibitors for 2 h and then treated with TSZ for 6 h. Cell lysates were analyzed by immunoblotting. f HT-29 cells were pretreated with Nec-1 (40 μM), DAB (5 μM) or HS-1371 (5 μM) for 2 h and then treated with TSZ for 4 h. Cell lysates were immunoprecipitated with anti-RIP3 antibody. Immunoprecipitates and total lysates were analyzed by Western blotting
# TNFα Smac mimetic and the caspase inhibitor zVAD (hereafter referred to as TSZ) is a classical combination that is used to induce RIP3-mediated necroptotic cell death[10],[32]. We first verified that three established pharmacological inhibitors of necroptosis, necrostatin-1 (Nec-1), necrosulfonamide (NSA), and dabrafenib (DAB) could block TNF-induced necroptosis (Fig. 2d). Of these inhibitors, Nec-1 inhibits RIP1 kinase activity[33],[34], DAB inhibits RIP3 kinase activity, and NSA inhibits MLKL functions downstream of RIP3 phosphorylation. […] Next, we tested whether these four inhibitors would inhibit TNF-induced necroptosis signaling by blocking RIP3 kinase activity. […] The effect of HS-1371 on RIP3 kinase activity was compared with another RIP3 inhibitor, GSK’872[16].
# RIP3 [3] = molecular target: T1, RIP3; assay: Basal S227 auto-phosphorylation of RIP3 in HT-29 cells (immunoblot); format: cell-based; parameters: RIP3-expressing HT-29 cells; endogenous in cells; host or cells: HT-29; settings: 10 μM, 9 h
# Method: as §1
# RIP3 kinase activity is essential for TNF-induced necroptosis, and human S227 auto-phosphorylation sites of RIP3 are required for the interaction of RIP3 with its substrate MLKL[13],[14], which is indispensable for downstream necroptotic cell death signaling. To test the possible effects of the RIP3 inhibitors on necroptosis, HT-29 cells were treated with the kinase inhibitors, and RIP3 kinase activity was determined by examining its phosphorylation status.
# as §2
# T1 sequence (Q9Y572 whole entry): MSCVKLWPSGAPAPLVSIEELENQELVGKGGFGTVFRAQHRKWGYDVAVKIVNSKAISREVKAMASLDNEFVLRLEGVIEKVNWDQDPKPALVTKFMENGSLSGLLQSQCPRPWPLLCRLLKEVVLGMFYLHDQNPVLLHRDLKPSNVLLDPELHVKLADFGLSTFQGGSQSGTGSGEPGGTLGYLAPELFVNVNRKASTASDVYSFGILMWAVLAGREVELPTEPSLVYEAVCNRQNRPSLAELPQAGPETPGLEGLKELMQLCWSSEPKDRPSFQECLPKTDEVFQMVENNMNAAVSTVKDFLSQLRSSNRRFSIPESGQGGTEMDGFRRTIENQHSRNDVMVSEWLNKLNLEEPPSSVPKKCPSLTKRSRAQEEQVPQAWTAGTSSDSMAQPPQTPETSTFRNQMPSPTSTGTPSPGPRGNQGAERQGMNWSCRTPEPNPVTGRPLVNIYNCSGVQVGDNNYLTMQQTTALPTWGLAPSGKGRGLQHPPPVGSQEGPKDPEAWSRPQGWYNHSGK
S227 auto-phosphorylation of overexpressed RIP3 (RIP3 [1]),SMILES,p-MLKL detection / translocation after TSZ (p-MLKL),block of TNF-induced necroptosis (RIP3 phosphorylation) (RIP3 [2]),effect on S227 auto-phosphorylation of RIP3 at the basal level (RIP3 [3])
inhibited,CC(C)(C)c1nc(-c2cccc(NS(=O)(=O)c3c(F)cccc3F)c2F)c(-c2ccnc(N)n2)s1 [dabrafenib],no detection of p-MLKL,could block,
,"COc1nccnc1NS(=O)(=O)c1ccc(NC(=O)/C=C/c2ccc([N+](=O)[O-])s2)cc1 [necrosulfonamide, reference compound]",could not translocate into the plasma membrane,could block,
,Fc1ccc(Oc2ccnc3cc(-c4cnn(C5CCNCC5)c4)ccc23)c(F)c1 [HS-1336],,,inhibitory effect
,Fc1cccc(Oc2ccnc3cc(-c4cnn(C5CCNCC5)c4)ccc23)c1 [HS-1338],,,inhibitory effect
,"CN1C(=O)C(Cc2c[nH]c3ccccc23)NC1=S (stereo not shown) [necrostatin-1, reference compound]",no detection of p-MLKL,could block,
,Fc1ccccc1Nc1ccnc2cc(-c3cnn(C4CCNCC4)c3)ccc12 [HS-1308],,,inhibitory effect
